Measurements from patent publication US8703805B2 (Exelixis Patent Company LLC, priority 2005, dated 2014).

The compounds below were run on LXRα and/or LXRβ (assay: LXR/LXRE co-transfection assay (luciferase reporter, CV-1 cells)). Conditions: IC50 or EC50 for LXR (LXRα and/or LXRβ, not distinguished), tested as described in Example 109, CV-1 cells.
Type: cell-based, human
Summary of the method: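 Luciferase readout after 20 h compound exposure at 37 °C in CV-1 cells transiently expressing human LXRα or LXRβ with RXRα and an LXRE-driven reporter. Dose-response over 8 points at ½-log spacing, 4 wells each, fitted for EC50/IC50; values average ≥3 independent experiments, efficacy as % of high control.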

Row | SMILES | EC50 [µM]
1 | CS(=O)(=O)c1cccc(-c2ccc(-c3cc(C(F)(F)F)nn3-c3ccccc3S(N)(=O)=O)s2)c1 [Example 1131, 2-[5-{5-[3-(methylsulfonyl)phenyl]-2-thienyl}-3-(trifluoromethyl)-1H-pyrazol-1-yl]benzenesulfonamide] | < 1
2 | CC(C)(O)c1nn(-c2ccncc2Cl)c(-c2ccc(-c3cccc(S(C)(=O)=O)c3)s2)c1Cl [Example 125, 2-(4-chloro-1-(3-chloropyridin-4-yl)-5-(5-(3-(methylsulfonyl)phenyl)thiophen-2-yl)-1H-pyrazol-3-yl)propan-2-ol] | < 1
3 | Cc1cc(-c2cccc(S(C)(=O)=O)c2)ccc1-n1nc(C(C)(C)O)cc1-c1cccc(F)c1F [Example 116, 2-(5-(2,3-difluorophenyl)-1-(3-methyl-3′-(methylsulfonyl)biphenyl-4-yl)-1H-pyrazol-3-yl)propan-2-ol] | < 1
4 | C=C(C)c1cc(-c2ccc(-c3cccc(S(C)(=O)=O)c3)s2)n(-c2ccccc2Cl)n1 [Example 123, 1-(2-chlorophenyl)-5-(5-(3-(methylsulfonyl)phenyl)thiophen-2-yl)-3-(prop-1-en-2-yl)-1H-pyrazole] | < 1
5 | CC(C)(O)c1cc(-c2ccc(-c3cccc(S(C)(=O)=O)c3)cc2)n(-c2ccccc2Cl)n1 [Example 1219, 2-{1-(2-chlorophenyl)-5-[3′-(methylsulfonyl)biphenyl-4-yl]-1H-pyrazole-3-yl}propan-2-ol] | < 1
6 | COC(=O)c1cc(-c2ccccc2Cl)n(-c2ccc(-c3cccc(S(C)(=O)=O)c3)cn2)n1 [Example 1230, methyl 5-(2-chlorophenyl)-1-{5-[3-(methylsulfonyl)phenyl]pyridin-2-yl}-1H-pyrazole-3-carboxylate] | 1 to 10
7 | CONC(=O)c1cc(-c2ccc(-c3cccc(S(C)(=O)=O)c3)s2)n(-c2ccccc2Cl)n1 [Example 1163, 1-(2-chlorophenyl)-N-(methyloxy)-5-{5-[3-(methylsulfonyl)phenyl]-2-thienyl}-1H-pyrazole-3-carboxamide] | 1 to 10
8 | Cc1cc(-c2cccc(S(C)(=O)=O)c2)ccc1-n1nc(C(C)(C)O)cc1-c1ccccc1C(F)(F)F [Example 139, 2-(1-(3-methyl-3′-(methylsulfonyl)biphenyl-4-yl)-5-(2-(trifluoromethyl)phenyl)-1H-pyrazol-3-yl)propan-2-ol] | < 1
9 | CC(C)(O)c1cc(-c2ccc(-c3cccc(S(C)(=O)=O)c3)s2)n(-c2ccc(F)cc2F)n1 [Example 1265, 2-[1-(2,4-difluorophenyl)-5-{5-[3-(methylsulfonyl)phenyl]-2-thienyl}-1H-pyrazol-3-yl]propan-2-ol] | < 1
10 | CS(=O)(=O)c1cccc(-c2ccc(-c3cc(C(=O)O)nn3-c3ccccc3C(F)(F)F)s2)c1 [Example 1193, 5-{5-[3-(methylsulfonyl)phenyl]-2-thienyl}-1-[2-(trifluoromethyl)phenyl]-1H-pyrazole-3-carboxylic acid] | 1 to 10
11 | CC(=O)c1cc(-c2ccccc2Cl)n(-c2ccc(-c3cccc(S(C)(=O)=O)c3)nc2)n1 [Example 1249, 1-[5-(2-chlorophenyl)-1-{6-[3-(methylsulfonyl)phenyl]pyridin-3-yl}-1H-pyrazol-3-yl]ethanone] | 1 to 10
12 | CCN(CC)CCN(C)C(=O)c1cc(-c2ccc(-c3cccc(S(C)(=O)=O)c3)s2)n(-c2ccccc2Cl)n1 [Example 1140, 1-(2-chlorophenyl)-N-[2-(diethylamino)ethyl]-N-methyl-5-{5-[3-(methylsulfonyl)phenyl]-2-thienyl}-1H-pyrazole-5-carboxamide] | 1 to 10
13 | CC(C)(O)c1cccc(-c2ccc(-c3cc(C(F)(F)F)nn3-c3ccccc3Cl)cc2)c1 [Example 1221, 2-{4′-[1-(2-chlorophenyl)-3-(trifluoromethyl)-1H-pyrazol-5-yl]biphenyl-3-yl}propan-2-ol] | < 1
14 | CC(C)(NC=O)c1cc(-c2ccc(-c3cccc(S(C)(=O)=O)c3)s2)n(-c2ccccc2Cl)n1 [Example 1203, N-{1-[1-(2-chlorophenyl)-5-{5-[3-(methylsulfonyl)phenyl]-2-thienyl}-1H-pyrazol-3-yl]-1-methylethyl}formamide] | 1 to 10
15 | CC(C)S(=O)(=O)c1cccc(-c2ccc(-c3cc(C(F)(F)F)nn3-c3ncccc3C(F)(F)F)s2)c1 [Example 1169, 2-[5-(5-{3-[(1-methylethyl)sulfonyl)phenyl}-2-thienyl)-3-(trifluoromethyl)-1H-pyrazol-1-yl]-3-(trifluoromethyl)pyridine] | < 1
16 | Cc1ccc(-n2nc(C(F)(F)F)cc2-c2ccc(-c3cccc(S(C)(=O)=O)c3)s2)c(Cl)c1O [Example 1251, 2-chloro-6-methyl-3-[5-{5-[3-(methylsulfonyl)phenyl]-2-thienyl}-3-(trifluoromethyl)-1H-pyrazol-1-yl]phenol] | 1 to 10
17 | CS(=O)(=O)c1cc(-c2ccc(-c3cc(C(F)(F)F)nn3-c3cc(Cl)ccc3Cl)s2)ccc1O [Example 1247, 4-{5-[1-(2,5-dichlorophenyl)-3-(trifluoromethyl)-1H-pyrazol-5-yl]-2-thienyl}-2-(methylsulfonyl)phenol] | 1 to 10
18 | COC(=O)c1cc(-c2cc(C(F)(F)F)nn2-c2ccccc2Cl)ccc1-c1cccc(S(C)(=O)=O)c1 [Example 1138, methyl 4-[1-(2-chlorophenyl)-3-(trifluoromethyl)-1H-pyrazol-5-yl]-3′-(methylsulfonyl)biphenyl-2-carboxylate] | 1 to 10
19 | CC(C)(O)c1cc(-c2ccc(-c3cccc(S(C)(=O)=O)c3)s2)n(-c2ccc(F)cc2)n1 [Example 1263, 2-[1-(4-fluorophenyl)-5-{5-[3-(methylsulfonyl)phenyl]-2-thienyl}-1H-pyrazol-3-yl]propan-2-ol] | 1 to 10
20 | CC(C)(O)c1cc(-c2ccc(-c3cccc(C#N)c3)s2)n(-c2ccccc2Cl)n1 [Example 1269, 3-{5-[1-(2-chlorophenyl)-3-(1-hydroxy-1-methylethyl)-1H-pyrazol-5-yl]-2-thienyl}benzonitrile] | 1 to 10
21 | CC(C)(O)c1cc(-c2ccc(-c3ccc(S(C)(=O)=O)cc3)s2)n(-c2ccccc2Cl)n1 [Example 804, 2-[1-(2-chlorophenyl)-5-{5-[4-(methylsulfonyl)phenyl]-2-thienyl}-1H-pyrazol-3-yl]propan-2-ol] | 1 to 10

Now from value to compound:

Row | EC50 [µM] | SMILES
22 | 1 to 10 | CC(C)(O)c1cc(-c2ccc(-c3cccc(S(C)(=O)=O)c3)s2)n(-c2cccc(C(F)(F)F)c2O)n1 [Example 1338, 2-[3-(1-hydroxy-1-methylethyl)-5-{5-[3-(methylsulfonyl)phenyl]-2-thienyl}-1H-pyrazol-1-yl]-6-(trifluoromethyl)phenol]
23 | 1 to 10 | Cn1ccc2cc(-c3ccc(-c4cc(C(C)(C)O)nn4-c4ccccc4Cl)cc3)ccc21 [Example 1284, 2-{1-(2-chlorophenyl)-5-[4-(1-methyl-1H-indol-5-yl)phenyl]-1H-pyrazol-3-yl}propan-2-ol]
24 | < 1 | CC(C)(O)c1nn(-c2ccccc2Cl)c(-c2ccc(-c3cccc(S(C)(=O)=O)c3)s2)c1F [Example 1319, 2-[1-(2-chlorophenyl)-4-fluoro-5-{5-[3-(methylsulfonyl)phenyl]-2-thienyl}-1H-pyrazol-3-yl]propan-2-ol]
25 | < 1 | CC(C)(O)c1nn(-c2ccccc2OC(F)(F)F)c(-c2ccc(-c3cccc(S(C)(=O)=O)c3)s2)c1Br [Example 1359, 2-(4-bromo-5-{5-[3-(methylsulfonyl)phenyl]-2-thienyl)-1-{2-[(trifluoromethyl)oxy]phenyl}-1H-pyrazol-3-yl)propan-2-ol]
26 | < 1 | CC(C)(O)c1nn(-c2ccccc2Br)c(-c2ccc(-c3cccc(S(C)(=O)=O)c3)s2)c1Cl [Example 1368, 2-[1-(2-bromophenyl)-4-chloro-5-{5-[3-(methylsulfonyl)phenyl]-2-thienyl}-1H-pyrazol-3-yl]propan-2-ol]
27 | < 1 | CC(C)(O)c1cc(-c2ccc(-c3cccc(S(C)(=O)=O)c3)s2)n(-c2cccc(F)c2F)n1 [Example 1326, 2-[1-(2,3-difluorophenyl)-5-{5-[3-(methylsulfonyl)phenyl]-2-thienyl}-1H-pyrazol-3-yl]propan-2-ol]
28 | 1 to 10 | CC(=O)Nc1cccc(-c2ccc(-c3cc(C(C)(C)O)nn3-c3ccccc3Cl)cc2)c1 [Example 1311, N-{4′-[1-(2-chlorophenyl)-3-(1-hydroxy-1-methylethyl)-1H-pyrazol-5-yl]biphenyl-3-yl}acetamide]
29 | < 1 | CC(C)(O)c1nn(-c2ccccc2Cl)c(-c2ccc(-c3cccc(S(C)(=O)=O)c3)s2)c1Cl [Example 1294, 2-[4-chloro-1-(2-chlorophenyl)-5-{5-[3-(methylsulfonyl)phenyl]-2-thienyl}-1H-pyrazol-3-yl]propan-2-ol]
30 | < 1 | CC(C)(O)c1cc(-c2ccc(-c3cccc(S(C)(=O)=O)c3)s2)n(-c2cccc(Cl)c2Cl)n1 [Example 1281, 2-[1-(2,3-dichlorophenyl)-5-{5-[3-(methylsulfonyl)phenyl]-2-thienyl}-1H-pyrazol-3-yl]propan-2-ol]
31 | 1 to 10 | CC(C)(O)c1cccc(-c2ccc(-c3cc(C(=O)NCC(F)(F)F)nn3-c3ccccc3Cl)s2)c1 [Example 1276, 1-(2-chlorophenyl)-5-{5-[3-(1-hydroxy-1-methylethyl)phenyl]-2-thienyl}-N-(2,2,2-trifluoroethyl)-1H-pyrazole-3-carboxamide]
32 | 1 to 10 | CC(C)(O)c1cc(-c2ccc(-c3ccc4[nH]ccc4c3)cc2)n(-c2ccccc2Cl)n1 [Example 1283, 2-{1-(2-chlorophenyl)-5-[4-(1H-indol-5-yl)phenyl]-1H-pyrazol-3-yl}propan-2-ol]
33 | 1 to 10 | CC(C)(O)c1cc(-c2ccc(-c3cccc(S(C)(=O)=O)c3)s2)n(-c2cc(F)ccc2F)n1 [Example 1322, 2-[1-(2,5-difluorophenyl)-5-{5-[3-(methylsulfonyl)phenyl]-2-thienyl}-1H-pyrazol-3-yl]propan-2-ol]
